According to ChEMBL document CHEMBL4340567, “Generation of C5-desoxy analogs of tetrahydroisoquinoline alkaloids exhibiting potent DNA alkylating ability” (Bioorg Med Chem Lett, 2019):
Active and inactive are the calls of the source. The rule behind the calls is not given here.

How the values were obtained:
[1] = Induction of alkylation in fluorescein-labelled 5'-GGG-3' double stranded DNA (unknown origin) at 100 uM incubated for 30 mins by EMSA relative to control
[2] = Induction of alkylation in fluorescein-labelled 5'-GGG-3' double stranded DNA (unknown origin) at 25 uM incubated for 30 mins by EMSA relative to control
[3] = Reversible binding affinity to fluorescein-labelled 5'-GGG-3' double stranded DNA (unknown origin) at 100 uM incubated for 30 mins in presence of KCN by EMSA
[4] = Induction of alkylation in fluorescein-labelled 5'-GGG-3' double stranded DNA (unknown origin) at 50 uM incubated for 30 mins by EMSA relative to control
[5] = Induction of alkylation in fluorescein-labelled 5'-ATA-3' double stranded DNA (unknown origin) at 100 uM incubated for 30 mins by EMSA relative to control
[6] = Induction of alkylation in fluorescein-labelled 5'-GGG-3' double stranded DNA (unknown origin) incubated for 30 mins by EMSA relative to control
[7] = Induction of alkylation in fluorescein-labelled 5'-GGC-3' double stranded DNA (unknown origin) at 100 uM incubated for 30 mins by EMSA relative to control
[8] = Induction of alkylation in fluorescein-labelled 5'-AGT-3' double stranded DNA (unknown origin) at 100 uM incubated for 30 mins by EMSA relative to control
[9] = Binding affinity to FAM-labelled 5'-GGG-3' double stranded DNA (unknown origin) assessed as migration of compound from 5'-AGT-3' to 5'-GGC-3' at 100 uM incubated for 30 mins by EMSA
[10] = Induction of alkylation in fluorescein-labelled 5'-GGG-3' double stranded DNA (unknown origin) at 10 uM incubated for 30 mins by EMSA relative to control
[11] = Binding affinity to fluorescein-labelled 5'-GGG-3' double stranded DNA (unknown origin) assessed as formation of compound-dsDNA oligomer complex at five equivalents incubated for 30 mins by EMSA relative to control
[12] = Induction of alkylation in fluorescein-labelled 5'-AGC-3' double stranded DNA (unknown origin) at 100 uM incubated for 30 mins by EMSA relative to control
[13] = Induction of alkylation in fluorescein-labelled 5'-GGG-3' double stranded DNA (unknown origin) at 2.5 uM incubated for 30 mins by EMSA relative to control
[14] = Induction of alkylation in fluorescein-labelled 5'-GGG-3' double stranded DNA (unknown origin) at 5 uM incubated for 30 mins by EMSA relative to control
[15] = Induction of alkylation in fluorescein-labelled 5'-CGG-3' double stranded DNA (unknown origin) at 100 uM incubated for 30 mins by EMSA relative to control

Structure (SMILES)	Activity [1]	Activity [5]	Activity [7]	Activity [8]	Activity [12]	Activity [15]	other results
CCCCCCCCC/C=C/COC(=O)N[C@@H](C)C(=O)NC[C@H]1c2c(cc(C)c(OC)c2O)C[C@H]2[C@H]3c4c(cc(C)c(OC)c4O)C[C@@H]([C@H](C#N)N12)N3C	inactive	–	–	–	–	–	–
COc1c(C)cc2c(c1O)[C@@H]1[C@@H]3Cc4cc(C)c(OC)c(O)c4[C@H](CNC(=O)[C@H](C)N)N3[C@@H](C#N)[C@H](C2)N1C	> 90%	inactive	94%	36%	80%	63%	Activity [2]: > 95%; Activity [3]: Active; Activity [4]: > 95%; Activity [6]: Dose-dependent effect; Activity [9]: Active; Activity [10]: 85%; Activity [11]: > 95%; Activity [13]: 10%; Activity [14]: 41%
COC1=C(C)C(=O)C2=C(C1=O)[C@H](CNC(=O)[C@H](C)N)N1[C@@H](C#N)[C@@H]3Cc4cc(C)c(OC)c(O)c4[C@H]([C@@H]1C2)N3C	31%	inactive	53%	inactive	17%	33%	–

More lines, main results first:

Activity [1]	Activity [5]	Activity [7]	Activity [8]	Activity [12]	Activity [15]	Structure (SMILES)	other results
86%	–	–	–	–	–	C=CCOC(=O)N[C@@H](C)C(=O)NC[C@H]1c2c(cc(C)c(OC)c2O)C[C@H]2[C@H]3c4c(cc(C)c(OC)c4O)C[C@@H]([C@H](C#N)N12)N3C	–
22%	–	–	–	–	–	COc1c(C)cc2c(c1O)[C@@H]1[C@@H]3Cc4cc(C)c(OC)c(O)c4[C@H](CNC(=O)[C@H](C)NC(=O)OCC4c5ccccc5-c5ccccc54)N3[C@@H](C#N)[C@H](C2)N1C	–
